In BindingDB's records for doi:10.1016/j.bmc.2014.03.018 (Deakin University, 2014):

Assay: Antagonist activity at androgen receptor in human LNCAP cells assessed as inhibition of androgen-stimulated cell growth measured every 3 days

SMILES	IC50
CC(C)(O)c1cn(-c2ccc(Cl)c(C(F)(F)F)c2)nn1	49 µM
CC(C)(O)c1cn(-c2ccc([N+](=O)[O-])c(C(F)(F)F)c2)nn1	45 µM
